Results from patent publication US5952307A, “Basic α-aminoalkylphosphonate derivatives” (priority 1997, dated 1999).
Where two headings read alike, the source gives them in different places.

Legend:
Assay type in all cases: biochemical
bovine trypsin [1] = biological target: T1, bovine trypsin (Bos taurus, UniProt P00760); experiment: Inactivation rate of bovine trypsin, incubation method; settings: Table III; enzyme 0.06-0.5 μM, inhibitor 0.25-42 μM, 9% DMSO, 25° C.; NI = no inhibition
T1 sequence (P00760 24-246): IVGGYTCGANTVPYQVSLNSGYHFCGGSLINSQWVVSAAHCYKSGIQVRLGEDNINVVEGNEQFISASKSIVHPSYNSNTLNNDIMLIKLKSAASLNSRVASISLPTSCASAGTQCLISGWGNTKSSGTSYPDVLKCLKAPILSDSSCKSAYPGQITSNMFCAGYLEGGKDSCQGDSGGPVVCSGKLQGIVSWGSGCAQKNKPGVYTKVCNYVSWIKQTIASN

human granzyme A = biological target: T2, human granzyme A (Homo sapiens, UniProt P12544); experiment: Inactivation rate of human granzyme A, incubation method; settings: Table I; 0.1M Hepes, 0.01M CaCl2 pH 7.5, 25° C., 7.6% DMSO, substrate Z--Arg--SBzl
T2 sequence (P12544 29-262): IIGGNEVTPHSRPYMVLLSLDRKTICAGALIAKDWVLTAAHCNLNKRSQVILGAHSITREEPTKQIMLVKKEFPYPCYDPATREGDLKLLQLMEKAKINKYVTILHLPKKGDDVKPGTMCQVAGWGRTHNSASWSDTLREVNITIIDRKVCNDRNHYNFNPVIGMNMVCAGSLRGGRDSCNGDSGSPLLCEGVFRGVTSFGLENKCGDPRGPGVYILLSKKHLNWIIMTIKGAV
Method: (§1) Inactivation rates of serine proteases by aryl diesters of peptidyl derivatives of α-aminoalkylphosphonates were measured by the incubation method. An aliquot of inhibitor (25 or 50 μl) in Me2 SO was added to a buffered enzyme solution (0.01-2.3 μM) to initiate the inactivation. Aliquots (50 μl) were withdrawn at various intervals and the residual enzymatic activity was measured. Me2 SO concentration in the reaction mixture was 8-12% (v/v). A 0.1 M HEPES, 0.01 M CaCl2, pH 7.5 buffer was utilized for trypsin and trypsin-like enzymes. A 0.1 M HEPES, 0.5 M NaCl, pH 7.5, was utilized for the other serine proteases. Peptide thioesters or peptide nitroanilides with the appropriate sequences were used as substrates for various serine proteases. All peptide thioesters hydrolysis rates were measured with the assay mixture containing 4,4'-dithiodipyridine {ε324 =19800 M^-1 cm^-1; Grasetti & Murray, Arch. Biochem. Biophys. 1967, 119, 41-48}. Peptide 4-nitroanilide hydrolysis was measured at 410 nm {ε410 =8800 M^-1 cm^-1; Erlanger et al., Arch. Biochem. Biophys. 1961, 95, 271-278}. First order inactivation rate constants (Kobs) were obtained from plots of In vt /vo vs time, and the correlation coefficients were greater then 0.98.
(§2) ^a Inhibition constants were measured in 0.1M Hepes, 0.01M CaCl2
(§3) pH 7.5 for trypsin, granzymes A, and K, and in 0.1M Hepes, 10% glycerol,
(§4) 10 mM heparin, pH 7.5 for mast cell tryptase, and at 25° C. The
(§5) reaction mixtures contained 2% DMSO for trypsin, 7.6% for granzyme A, and
(§6) 7.1% for granzyme K and tryptase. The substrate was Z--Arg--SBzl for
(§7) granzymes and trypsin, and Z--Arg--SBzl or Z--Lys--SBzl for tryptase in
(§8) the presence of DTNB. The inhibitor # concentration ranged from 0.001 to
(§9) ^b NI, no inhibition after 25 min of incubation with enzyme.

rat granzyme A = experiment: Inactivation rate of rat granzyme A, incubation method; settings: Table I; 0.1M Hepes, 0.01M CaCl2 pH 7.5, 25° C., 7.6% DMSO, substrate Z--Arg--SBzl
Method: as §1, §2, §3, §4, §5, §6, §7, §8, §9

mast cell tryptase = mast cell tryptase (Homo sapiens, UniProt Q15661); experiment: Inactivation rate of mast cell tryptase, incubation method; settings: for kobsd /[I] mast cell tryptase: Table I, 0.1M Hepes, 10% glycerol, 10 mM heparin, pH 7.5, 25° C., 7.1% DMSO, NI = no inhibition after 25 min of incubation; for kobs /[I] mast cell tryptase: 25° C., NI = no inhibition
Method: as §1, §2, §3, §4, §5, §6, §7, §8, §9
(§10) ^a Enzyme was incubated with the inhibitor in 250 μL of the proper
(§11) containing 428 mM NaCl and 8% DMSO; 0.07 μM tryptase, 20-66 μM
inhibitor # in an mM Hepes, pH 7.5 buffer containing 8 mM heparin, 166 m
NaCl, 0.8 mM Mes, 9% glycerol and 8% DMSO; 0.42 μM factor Xa, 66 μM
(§12) DMSO. Aliquots of 25 μL were withdrawn at various intervals and the
(§13) residual enzymatic activity was measured as described in experimental
(§14) section. The kobs values were calculated from pseudofirst-order
(§15) ^a Enzyme (0.06-0.5 μM) was incubated with the inhibitor (0.25-42
(§16) μM) in 250 μL of the proper buffer containing 9% DMSO at 25°
(§17) C. The final inhibition reaction mixtures are given in the footnote to
(§18) Table 1. Aliquots of 25 μL were withdrawn at various intervals and the […]

bovine trypsin [2] = biological target: T1, bovine trypsin; experiment: Inactivation rate of bovine trypsin, incubation method; settings: for kobsd /[I] bovine trypsin: Table I, 0.1M Hepes, 0.01M CaCl2 pH 7.5, 25° C., 2% DMSO, substrate Z--Arg--SBzl, NI = no inhibition after 25 min; for kobs /[I] bovine trypsin: Table II, 0.13 μM trypsin, 0.25-42 μM inhibitor, 80 mM Hepes pH 7.5, 1 mM CaCl2, 8% DMSO, 25° C., NI = no inhibition
Method: as §1, §2, §3, §4, §5, §6, §7, §8, §9, §10
(§19) buffer at 25° C. Specifically, the inhibition reation mixtures wer
composed of: 0.13 μM trypsin, 0.25-42 μM inhibitor in an 80 mM
(§20) Hepes, pH 7.5 buffer containing 1 mM CaCl2 and 8% DMSO; 0.07 μM
as §12, §13, §14, §15, §16, §17, §18

human thrombin = biological target: T3, human thrombin (Homo sapiens, UniProt P00734); settings: 25° C., NI = no inhibition
T3 construct: bovine trypsin, human thrombin
Method: as §1, with “271-278}.” for “271-278}. First order inactivation rate constants (Kobs) were obtained from plots of In vt /vo vs time, and the correlation coefficients were greater then 0.98.”
as §10, §19, §20
thrombin, 0.25-42 μM inhibitor in an 80 mM Hepes, pH 7.5 buffer
as §11, §12, §13, §14, §15, §16, §17, §18

rat granzyme K = biological target: T4, rat granzyme K (Rattus norvegicus, UniProt P49864); experiment: Inactivation rate of rat granzyme K, incubation method; settings: Table I; 0.1M Hepes, 0.01M CaCl2 pH 7.5, 25° C., 7.1% DMSO, substrate Z--Arg--SBzl; NI = no inhibition after 25 min of incubation
T4 sequence (P49864 26-258): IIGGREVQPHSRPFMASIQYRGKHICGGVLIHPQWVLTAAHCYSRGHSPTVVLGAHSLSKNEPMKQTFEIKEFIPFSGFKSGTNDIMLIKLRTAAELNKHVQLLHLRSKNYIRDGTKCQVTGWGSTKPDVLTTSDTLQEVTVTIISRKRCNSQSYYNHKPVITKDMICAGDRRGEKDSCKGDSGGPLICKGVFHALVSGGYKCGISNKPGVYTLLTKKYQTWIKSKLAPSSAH
Method: as §1, §2, §3, §4, §5, §6, §7, §8, §9

[3] = Table II, 0.07 μM tryptase, 20-66 μM inhibitor, Hepes pH 7.5, heparin, 9% glycerol, 8% DMSO
[4] = Table II, 0.07 μM thrombin, 0.25-42 μM inhibitor, 80 mM Hepes pH 7.5, 428 mM NaCl, 8% DMSO
[5] = Table III, enzyme 0.06-0.5 μM, inhibitor 0.25-42 μM, 9% DMSO

Sequence of mast cell tryptase (Q15661 31-275): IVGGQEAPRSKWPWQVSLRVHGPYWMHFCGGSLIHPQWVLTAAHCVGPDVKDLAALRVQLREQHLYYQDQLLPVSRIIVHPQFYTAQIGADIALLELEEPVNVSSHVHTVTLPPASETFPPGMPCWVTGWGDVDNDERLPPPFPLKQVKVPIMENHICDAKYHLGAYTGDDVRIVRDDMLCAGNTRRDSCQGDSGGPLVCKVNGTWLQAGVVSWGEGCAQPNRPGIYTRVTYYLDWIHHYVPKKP

Row | Structure (SMILES) | kobs /[I] bovine trypsin (bovine trypsin [1]) [M⁻¹ s⁻¹] | kobsd /[I] human granzyme A (human granzyme A) [M⁻¹ s⁻¹] | kobsd /[I] rat granzyme A (rat granzyme A) [M⁻¹ s⁻¹] | kobsd /[I] mast cell tryptase (mast cell tryptase) [M⁻¹ s⁻¹] | kobs /[I] mast cell tryptase (mast cell tryptase; [3]) [M⁻¹ s⁻¹] | kobsd /[I] bovine trypsin (bovine trypsin [2]) [M⁻¹ s⁻¹] | kobs /[I] bovine trypsin (bovine trypsin [2]) | kobs /[I] human thrombin (human thrombin; [4]) | kobs /[I] mast cell tryptase (mast cell tryptase; [5]) [M⁻¹ s⁻¹] | kobs /[I] human thrombin (human thrombin; [5]) [M⁻¹ s⁻¹] | kobsd /[I] rat granzyme K (rat granzyme K) [M⁻¹ s⁻¹]
1 | CC(C)(C)OC(=O)NC(CC(N)=O)C(=O)NC(CCCCN)P(=O)(Oc1ccccc1)Oc1ccccc1 (mixture of isomers) [Boc--Asn--Lys^P (OPh)2] | 3 | – | – | – | – | – | – | – | – | – | –
2 | CC(NC(=O)OCc1ccccc1)C(=O)NC(c1ccc(C(=N)N)cc1)P(=O)(Oc1ccccc1)Oc1ccccc1 (mixture of isomers) [Cbz--Ala-(4-AmPhGly)^P (OPh)2] | – | 1670 ± 11 | 1270 ± 85 | 0.8 | 0.8 | 1850 ± 85 | 1,850 ± 85 M^-1 s^-1 | 750 ± 18 M⁻¹ s⁻¹ | – | – | –
3 | CC(C)C(NC(=O)CCC(=O)O)C(=O)N1CCCC1C(=O)NC(CCCCN)P(=O)(Oc1ccccc1)Oc1ccccc1 (mixture of isomers) [Suc--Val--Pro--Lys^P (OPh)2] | 416 ± 28 | – | – | – | – | – | – | – | 0.6 | 3.4 ± 0.4 | –
4 | CC(C)C(NC(=O)CCC(=O)O)C(=O)N1CCCC1C(=O)NC(CCCCCN)P(=O)(Oc1ccccc1)Oc1ccccc1 (mixture of isomers) [Suc--Val--Pro-HomoLys^P (OPh)2] | 51 ± 10 | – | – | – | – | – | – | – | 4.1 ± 0.4 | 1.6 ± 0.3 | –
5 | CC(C)(C)OC(=O)N[C@H](Cc1ccccc1)C(=O)N1CCC[C@H]1C(=O)NC(c1ccc(C(=N)N)cc1)P(=O)(Oc1ccccc1)Oc1ccccc1.Cl (stereo partly drawn) [Boc--D--Phe--Pro-(4-AmPhGly)^P (OPh)2, Diphenyl N-(Boc-D-Phe-Pro)amino(4-amidinophenyl)methanephosphonate hydrochloride] | – | 170 | – | 0.4 | – | 130 | 2,200 M^-1 s^-1 | 11,000 M^-1 s^-1 | – | – | 56 ± 2
6 | Cl.N=C(N)c1ccc(C(NC(=O)[C@@H]2CCCN2C(=O)OCc2ccccc2)P(=O)(Oc2ccccc2)Oc2ccccc2)cc1 (stereo partly shown) [Cbz--Pro-(4-AmPhGly)^P (OPh)2, Diphenyl N-(N-benzyloxycarbonylprolyl)amino(4-amidinophenyl)methanephosphonate hydrochloride] | – | 790 ± 17 | – | 1.2 | 1 | 910 ± 81 | 910 ± 81 M⁻¹ s⁻¹ | 640 ± 86 M⁻¹ s⁻¹ | – | – | 34 ± 4
7 | C[C@H](NC(=O)[C@@H]1CCCN1C(=O)OCc1ccccc1)C(=O)NC(c1ccc(C(=N)N)cc1)P(=O)(Oc1ccccc1)Oc1ccccc1 (stereo partly shown) [Cbz--Pro--Ala-(4-AmPhGly)^P (OPh)2] | – | 380 ± 18 | – | 1 | 1 ± 0 | 240 ± 10 | 240 ± 10 M⁻¹ s⁻¹ | 70 ± 2 M⁻¹ s⁻¹ | – | – | 5
8 | Cl.N=C(N)c1ccc(C(NC(=O)[C@@H]2CCCN2C(=O)c2ccccc2Oc2ccccc2)P(=O)(Oc2ccccc2)Oc2ccccc2)cc1 (stereo partly shown) [Diphenyl N-(N-(2-Phenoxybenzoylprolyl))amino(4-amidinophenyl)methanephosphonate Hydrochloride] | – | 610 ± 88 | – | 0.9 | 0.9 | 7760 ± 310 | 7,760 ± 310 M^-1 s^-1 | 42,400 ± 4190 M^-1 s^-1 | – | – | 60 ± 5
9 | N=C(N)c1ccc(C(NC(=O)CCC(=O)O)P(=O)(Oc2ccccc2)Oc2ccccc2)cc1 (stereo not shown) [Suc-(4-AmPhGly)^P (OPh)2] | – | 857 | – | 0.2 | 0.2 | 45 ± 3 | 45 ± 3 M⁻¹ s⁻¹ | 2 M⁻¹ s⁻¹ | – | – | 0.3 ± 0.07
10 | C[C@H](NC(=O)CCC(=O)O)C(=O)N[C@@H](C)C(=O)NC(c1ccc(C(=N)N)cc1)P(=O)(Oc1ccccc1)Oc1ccccc1 (stereo partly shown) [Suc--Ala--Ala-(4-AmPhGly)^P (OPh)2] | – | 260 ± 15 | – | 0.7 | 0.7 | 640 ± 36 | 640 ± 36 M⁻¹ s⁻¹ | 2 M⁻¹ s⁻¹ | – | – | 0.3 ± 0.01
